# Experimental data published in patent publication US8187822B2, “Methods to identify modulators” (Givaudan S.A., priority 2007, dated 2012).
# Experiments:
# Format in all cases: cell-based
# TAS2R16 = molecular target: T1, TAS2R16 (Homo sapiens, UniProt Q9NYV7); assay: Fluo-4 calcium assay, cells expressing TAS2R16 (control of antagonist specificity)
# T1 construct: The full length gene of human TAS2R44 was amplified by polymerase chain reaction (PCR) using gene-specific primers that span the entire coding region; RSS tag (first 45 amino acids of rat somatostatin receptor subtype 3) (N); expressed in transfected cells; host or cells: HEK293T cells expressing Gα16-gustducin44
# T1 sequence (Q9NYV7 1-291): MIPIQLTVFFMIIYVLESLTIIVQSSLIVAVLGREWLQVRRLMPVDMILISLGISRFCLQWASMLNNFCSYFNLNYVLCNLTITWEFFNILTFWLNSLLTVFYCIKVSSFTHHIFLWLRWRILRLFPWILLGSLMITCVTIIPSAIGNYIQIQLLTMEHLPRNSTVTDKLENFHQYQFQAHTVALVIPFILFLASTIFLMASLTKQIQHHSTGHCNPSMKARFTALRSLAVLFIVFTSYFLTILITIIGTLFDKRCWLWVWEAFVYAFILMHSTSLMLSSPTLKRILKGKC
# Description: (§1) At day 0, the HEK293T cell line expressing Gα16-gustducin44 and a TAS2R bitter taste receptor formed as described in examples 2b or 2c was seeded in antibiotic-free growth medium (standard DMEM with 10% (v/v) heat-inactivated fetal bovine serum, 2 mM L-glutamine[…]) into black wall/clear bottom 96-well plates, coated with poly(ethylenimine) (0.005% v/v) at a concentration of 15,000 cells per well and incubated for 48 hours in humidified atmosphere (37° C., 5% CO2).
# (§2) At the time of the assay, the growth medium was discarded and the cells were in humidified atmosphere (37° C., 5% CO2) for 1 hour with 50 μl of loading buffer consisting of 1.5 μM Fluo-4 AM and […] probenicid (Sigma-Aldrich, St. Louis, Mo., US) in DMEM.
# (§3) Afterwards, the 96-well plate was washed 5 times with 100 μl of assay buffer (130 mM NaCl, 5 mM KCl, 10 mM HEPES, 2 mM CaCl2, and 5 mM dextrose, pH 7.4) per well, using an automated plate washer (BioTek). The plate was further incubated for 30 minutes at room temperature in the dark to allow for complete de-esterification of the Fluo-4. Afterwards the plate was washed 5 times with 100 μl of assay buffer per well, and reconstituted with 100 μl of assay buffer per well.
# (§4) For assay reading, the plate was placed in a Fluorometric Imaging Plate Reader (FLIPR) (FLIPR-TETRA™, Molecular Devices, Sunnyvale, Calif., US), and receptor activation was initiated by addition of 100 μl of a twofold concentrated agonist stock solution (to give the desired agonist end concentration when added to the 100 microliter assay buffer volume), which was prepared in assay buffer.
# (§5) Fluorescence was continuously monitored for 20 seconds to give a signal baseline (averaged to give F0) prior to agonist addition and for 120 seconds after agonist addition. The change in signal divided by F0 gives ΔF/F0 indicated in the table, with ΔF being the maximum signal occurring within the 120 seconds minus the minimum signal (occurring within the 120 seconds after agonist addition.
# (§6) All data was collected from at least two independent experiments each carried out in triplicate.
# (§7) A concentration-response analysis was performed and EC50 values were calculated by nonlinear regression using the function f(x)=(a−d)/(1+(x/C)^nh)+d; with a=minimum signal, d=maximum signal, nh=hill coefficient, C=EC50, and x=agonist concentration. EC50 is the molar concentration of an agonist which produces 50% of the maximum possible effective response for that agonist.
# (§8) The obtained calcium signals were corrected for the response of cells expressing only the G Protein α subunit (Gα16-gustducin44) and normalized to the fluorescence of cells prior to the stimulus using ΔF/F0 (Fmax−Fmin/F0).
# All cells were HEK293T cells stably expressing Gα16-gustducin44, or expressing Gα16-gustducin44 and a TAS2R receptor (TAS2R44, TAS2R16).
# The method was carried out as described in example 3 subject to the following modifications: The samples were tested with and without test compound A (test cpd A) and the signals were compared. The test compound was dissolved in dimethylsulfoxide (DMSO), and a negative control with equivalent DMSO concentration (0.02%) was performed accordingly to exclude a potential inhibitory effect of the solvent.
# As a control of antagonist specificity, the response of an unrelated bitter taste receptor (TAS2R16) to its agonist phenyl-β-glucopyranosides is also detected (see results in table 8 herein below).
# [1] = system: cells expressing only Gα16gustducin44 but no TAS2 receptor; assay: Fluo-4 calcium assay, negative control cells without bitter receptor
# Description: HEK293T/Gα16-gustducin 44 cells were used; they are formed as described in WO 2004/055048. The host cell line HEK-293T is commercially available from the American Tissue Culture Collection (ATCC), ATCC®# CRL-11268
# as §1, §2, §3, §4, §5, §8
# To confirm that the cell line formed in example 2c stably expresses the bitter taste receptor TAS2R44, a concentration-response curve for saccharin, a known agonist of TAS2R44, was generated. […] The standard deviation (+/−STD) is also indicated.
# As a negative control to determine unspecific signals, each of the applied concentrations of sucralose was applied to cells expressing only Gα16gustducin44.
# As a negative control, each agonist and each agonist with the antagonist/test compound (test cpd A) is applied to cells expressing only Gal 6gustducin44 but no TAS2 receptor (see results in table 7 herein below).
# TAS2R44 = molecular target: T2, TAS2R44 (Homo sapiens, UniProt P59538, L162M); assay: Fluo-4 calcium assay, HEK293T cells expressing Gα16-gustducin44 and TAS2R44
# T2 construct: RSS tag (first 45 amino acids of rat somatostatin receptor subtype 3, plus EcoRI site) (N); expressed in transfected cells
# T2 sequence (P59538 with tags, fused parts or gaps L162M): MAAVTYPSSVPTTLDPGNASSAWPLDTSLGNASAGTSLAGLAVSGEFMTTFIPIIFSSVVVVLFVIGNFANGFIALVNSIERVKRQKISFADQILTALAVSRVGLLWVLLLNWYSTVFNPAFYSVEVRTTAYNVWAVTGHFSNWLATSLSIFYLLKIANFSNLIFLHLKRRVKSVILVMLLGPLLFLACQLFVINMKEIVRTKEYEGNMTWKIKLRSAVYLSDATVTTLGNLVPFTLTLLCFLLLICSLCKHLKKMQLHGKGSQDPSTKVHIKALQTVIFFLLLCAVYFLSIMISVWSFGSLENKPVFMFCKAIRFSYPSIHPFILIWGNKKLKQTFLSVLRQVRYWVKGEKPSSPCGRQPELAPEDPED
# Description: Cell lines that stably expresses a SABR (TAS2R44, TAS2R1, TAS2R10) was generated by transfecting pcDNA3.1Zeo-SABR into HEK293T/Gα16-gustducin 44 cells (both formed as described in example 1). The host cell line HEK-293T is commercially available from the American Tissue Culture Collection (ATCC), ATCC®# CRL-11268.
# The expression of TAS2R44 was evaluated by testing for the presence of a functional response to the known TAS2R44 agonist saccharin (as described in WO 2004/029087) in addition to sucralose, which was determined via automated calcium imaging on the FLIPR-TETRA™ (Molecular Devices, Sunnyvale, Calif., US) as described in example 3. One clone was selected resulting in the HEK293T/Gα16-gustducin 44/TAS2R44 cell line.
# Fluo-4AM (Invitrogen, Carlsbad, Calif., US) is a fluorescent indicator of intracellular calcium dynamics (change in concentration) and allows monitoring changes in the calcium concentration, particularly an increase in response to receptor activation occurring after agonist exposure.
# as §1, §2, §3, §4, §5, §6, §7
# The obtained calcium signals were corrected for the response of cells expressing only the G Protein α subunit (Gα16-gustducin44) and normalized to the fluorescence of cells prior to the stimulus using ΔF/F0 (Fmax−Fmin/F0). […]
smiles,measurement,setting,value
"OC[C@H]1O[C@@H](Oc2ccccc2)[C@H](O)[C@@H](O)[C@@H]1O [P-β-G, phenyl-β-glucopyranoside]",P-β-G ΔF/F0,TAS2R16; P-β-G alone 0.0391 mM,0.012
same,P-β-G ΔF/F0,TAS2R16; P-β-G alone 0.0781 mM,0.213
same,P-β-G ΔF/F0,TAS2R16; P-β-G alone 0.1563 mM,0.926
same,P-β-G ΔF/F0,TAS2R16; P-β-G alone 0.3125 mM,1.810
same,P-β-G ΔF/F0,TAS2R16; P-β-G alone 0.6250 mM,2.284
same,P-β-G ΔF/F0,TAS2R16; P-β-G alone 1.2500 mM,2.361
same,P-β-G ΔF/F0,TAS2R16; P-β-G alone 2.5000 mM,2.578
same,P-β-G ΔF/F0,TAS2R16; P-β-G alone 5.0000 mM,2.693
same,P-β-G ΔF/F0,TAS2R16; P-β-G alone 10.0000 mM,2.876
same,EC50,"TAS2R16; agonist P-β-G alone, TAS2R16",210 ± 20 µM
"O=C1NS(=O)(=O)c2ccccc21 [Saccharin, saccharin]","signal in negative control, in words",[1]; host cells expressing only Gα16-gustducin44,did not show any significant change in signal
same,Neg. Control ΔF/F0,[1]; saccharin 0.0391 mM,0.016
same,Neg. Control ΔF/F0,[1]; saccharin 0.0781 mM,0.014
same,Neg. Control ΔF/F0,[1]; saccharin 0.1563 mM,0.014
same,Neg. Control ΔF/F0,[1]; saccharin 0.3125 mM,0.012
same,Neg. Control ΔF/F0,[1]; saccharin 0.6250 mM,0.014
same,Neg. Control ΔF/F0,[1]; saccharin 1.2500 mM,0.014
same,Neg. Control ΔF/F0,[1]; saccharin 2.5000 mM,0.013
same,Neg. Control ΔF/F0,[1]; saccharin 5.0000 mM,0.018
same,Neg. Control ΔF/F0,[1]; saccharin 10.0000 mM,0.020
COC(=O)[C@H](Cc1ccccc1)NC(=O)[C@@H](N)CC(=O)O [aspartame],"agonist activity at TAS2R44 (calcium signaling), in words",TAS2R44; cells stably expressing human TAS2R44,not to be agonists for TAS2R44
"CC1CCC(CCCC(N)=O)C1(C)C (stereo not drawn) [test cpd B, 4-(2,2,3-trimethylcyclopentyl)butanamide]","effect on the response of TAS2R16 to phenyl-β-glucopyranoside, in words",TAS2R16; test compound at 25 μM,did not effect the response
same,"response in cells not expressing TAS2R44 (negative control), in words",[1]; test compound at 25 μM,did not elicit a response
same,"effect on the response of TAS2R44 to sucralose, in words",TAS2R44; test compound at 25 μM,had no effect
